Reference: US20240025903A1, “Bicyclic Compounds and Uses Thereof for the Treatment of Diseases” (Athira Pharma, Inc., priority 2020, published 2024)

Tests used:
MDCK cells = test: Cell scattering behavior assay; format: cell-based; design: key: − indicates that the compound failed to significantly promote cell scattering behavior; + indicates maximum potency at or above 100 nM; ++ indicates maximum potency at or above 10 nM; +++ indicates maximum potency at or above 1 nM; ++++ indicates maximum potency at or above 0.1 nM; conditions: 5 ng/mL HGF, 24 hours, normalized particle count vs HGF alone
Experimental: MDCK cells were grown under normal conditions and observed to spontaneously form tight colonies as they proliferate. MDCK cells respond to HGF treatment by moving away from each other (scattering), which is quantified to assess the amount of HGF/MET activation in the cell population. In this experiment, MDCK cells were plated in a 96-well format, treated with HGF and exemplary compounds, fluorescently stained, imaged in large fields, and scattering behavior was quantified. Quantification was determined by analyzing the number of continuous groups of cells compared to the total stained area imaged (normalized particle counts).
MDCK cells were plated at low density in black-walled imaging plates and allowed to attach overnight at 37° C. and 5% CO2 in DMEM+10% FBS. Cells were then starved to 2 hours in DMEM without FBS (“starve media”). Samples containing exemplary compounds were prepared in DMEM without FBS and included 5 ng/mL HGF protein (“treatment media”). A control curve was also prepared for each plate using HGF concentrations of 0, 5, 10, and 20 ng/mL. Starve media was replaced with treatment media and cells were incubated for 24 hours at 37° C. and 5% CO2.
After incubation, cells were fixed by replacing treatment media with cold ethanol and incubating for 20 minutes at 4° C. Cells were then rehydrated by washing with PBS and then with stain solution (fluorescent wheat germ agglutinin; WGA488 at 20 μg/mL in PBS). Cells were incubated with stain solution 30 minutes at room temperature after which stain solution was replaced with fresh PBS.
Fields of cells were imaged using an iCyte high content imager in the green wavelength. Images were converted to binary and analyzed for particle size and particle count. For the purpose of analysis, an individual cell touching no other cells or separated colonies of cells were identified as particles, and particle counts were normalized by the total signal area to account for differences in cell number. […] Compound potency was assessed by statistical increase in normalized particle count compared to HGF treatment alone.

[1] = Turbidimetric solubility assay; format: physicochemical; conditions: aqueous buffer, kinetic from dmso stock, PBS, 37° C., absorbance 620 nm
Experimental: Aqueous solubility is a critical drug property that helps to predict bioavailability. Generally, compounds with aqueous solubility <100 μg/ml are poor drugs.
To assess a compound's solubility by turbidity, test compounds were first dissolved in organic solvent (DMSO) at a concentration of 10 mM. This compound solution was then diluted in aqueous solvent (PBS) in a dilution series from […] in a 96-well assay plate. Solutions were incubated at 37° C. for 2 hours.
In wells with test compounds over their solubility limit, the compound will precipitate, effectively blocking the passage of light and thus increasing the absorbance signal of UV light at a wavelength of 620 nm. Compounds were considered insoluble at a tested concentration if turbidity raises the absorbance more than 10% above control reads.

[2] = Parallel artificial membrane permeability assay (PAMPA); format: in vitro ADME; conditions: PBS, room temperature
Experimental: Bioavailable drugs must permeate the cellular membranes of the lining of the digestive tract. To estimate the penetrability of exemplary compounds, the in vitro parallel artificial membrane permeability assay (PAMPA) was utilized.
Test compounds must have a standard curve in the final read plate to determine partitioned concentration of each drug. A 6-point standard curve was prepared for each compound from 0 to 200 μM in phosphate-buffered saline (PBS).
Test compound solution (300 μL in PBS) was added to the donor (bottom) well of the PAMPA plate in 5 replicates and PBS vehicle (200 μL) was added to the acceptor (top) wells of appropriate wells to match the loading of the donor plate. The bottom and top of the PAMPA plates were then sandwiched together. The PAMPA plates were then incubated at room temperature for 5 hours. After incubation, 150 μL of donor solution was added to a UV compatible plate containing the corresponding standard curve. 150 μL of acceptor well solution was added adjacent to the corresponding standard curve and donor well samples for that compound. The plate was then read using a UV plate reader.
Permeability and membrane retention were then calculated based on the following formulas:
Permeability (cm/s): (Pe)(cm/s)={−ln [1−CA(t)/Ceq]}/[A*(1/VD+1/VA)*t] (equation 1) • where: • A=filter area (0.3 cm^2); • VD=donor well volume (0.3 mL); • VA=acceptor well volume (0.2 mL); • t=incubation time (seconds); • CA(t)=compound concentration in acceptor well at time t; • CD(t)=compound concentration in donor well at time t; and • Ceq=[CD(t)*VD+CA(t)*VA]/(VD+VA).
Membrane Retention (R)=1−[CD(t)*VD+CA(t)*VA]/(C0*VD) (equation 2) • where: • CD(t), VD, CA(t), and VA are as defined for equation 1, and • C0=initial concentration in donor well (200 uM).

[3] = In vitro stability in simulated gastric and intestinal fluids; format: in vitro ADME; conditions: 37° C.; for SGF + Enz (compound remaining after 4 hours): SGF with 3.2 mg/ml pepsin; for SGF + Enz (compound remaining after 4 hours) / SIF (compound remaining after 4 hours): 5 μM; for SGF (compound remaining after 4 hours): simulated gastric fluid pH 1.2, 5 μM; for SIF (compound remaining after 4 hours): simulated intestinal fluid pH 6.8 with 10 mg/ml pancreatin
Experimental: (§1) Bioavailability can be estimated by compound stability when exposed to conditions in the body. As an initial assessment of stability properties in a variety of conditions present in animals, exemplary compounds were tested for stability in a battery of simulated body compartments. Compounds were tested for stability in the following solutions: simulated gastric fluid (SGF: 34.2 mM NaCl, pH 1.2), simulated gastric fluid with the digestive enzyme pepsin (SGF+Enzyme: SGF with 3.2 mg/ml pepsin), simulated intestinal fluid with the mixture of enzymes in porcine pancreatin (SIF+Enzyme: 28.7 mM NaH2PO4, 105.7 mM NaCl, pH 6.8, 10 mg/ml pancreatin), rat plasma, and human plasma.
(§2) Test compounds were incubated at a final concentration of 5 μM in the above solutions at 37° C. with samples removed at the following time points: 0, 1, 2, and 4 hours. Reactions were stopped and prepared for quantification by addition of excess quench solution containing an internal standard (acetonitrile, 200 ng/mL bucetin). Test compound and internal standard in each sample was quantified by LC-MS/MS, and after internal normalization to bucetin, test compound concentration was expressed as a percentage of concentration at the 0-hour time point. Stability in the relevant test solution was then determined by the percent remaining at the 4-hour time point.

[4] = In vitro stability in rat plasma; format: in vitro ADME; conditions: 5 μM, 37° C.
Experimental: as §1, §2

[5] = In vitro stability in human plasma; format: in vitro ADME; conditions: 5 μM, 37° C.
Experimental: as §1, §2

## CCC(C)CN1CC2N(C(=O)c3ccc(F)cc3)CCC(=O)N2C(C)C1=O (stereo not shown) [Compound 11, 1-(4-fluorobenzoyl)-6-methyl-8-(2-methylbutyl)hexahydro-4H-pyrazino[1,2-a]pyrimidine-4,7(6H)-dione]
MDCK cells
  Potency (cell scattering): ++ (++ indicates maximum potency at or above 10 nM)
[1]
  solubility at 2 h: > 300 µM
[2]
  Papp at 5 h, 200 µM: > 2 ×10⁻⁶ cm/s
[3]
  SGF + Enz (compound remaining after 4 hours): +++ (+++ indicates 80-99% compound remaining after 4 hours)
  SGF (compound remaining after 4 hours): +++ (+++ indicates 80-99% compound remaining after 4 hours)
  SIF (compound remaining after 4 hours): ++++ (++++ indicates 100% compound remaining after 4 hours)
[4]
  Rat Plasma (compound remaining after 4 hours): ++++ (++++ indicates 100% compound remaining after 4 hours)
[5]
  Human Plasma (compound remaining after 4 hours): +++ (+++ indicates 80-99% compound remaining after 4 hours)

## CCC(C)CN1CC2N(C(=O)c3ccc(C(F)(F)F)c(Cl)c3)CCC(=O)N2C(C)C1=O (stereo not shown) [Compound 12, 1-(3-chloro-4-(trifluoromethyl)benzoyl)-6-methyl-8-(2-methylbutyl)hexahydro-4H-pyrazino[1,2-a]pyrimidine-4,7(6H)-dione]
MDCK cells
  Potency (cell scattering): ++ (++ indicates maximum potency at or above 10 nM)
[1]
  solubility at 2 h: > 300 µM
[2]
  Papp at 5 h, 200 µM: < 2 ×10⁻⁶ cm/s
[3]
  SGF + Enz (compound remaining after 4 hours): +++ (+++ indicates 80-99% compound remaining after 4 hours)
  SGF (compound remaining after 4 hours): +++ (+++ indicates 80-99% compound remaining after 4 hours)
  SIF (compound remaining after 4 hours): ++ (++ indicates 40-79% compound remaining after 4 hours)
[4]
  Rat Plasma (compound remaining after 4 hours): ++++ (++++ indicates 100% compound remaining after 4 hours)
[5]
  Human Plasma (compound remaining after 4 hours): +++ (+++ indicates 80-99% compound remaining after 4 hours)

## CC1C(=O)N(CC2CCC2)CC2N(C(=O)c3ccc(OC(F)F)cc3)CCC(=O)N12 (stereo not shown) [Compound 14]
[1]
  solubility at 2 h: > 300 µM
[2]
  Papp at 5 h, 200 µM: > 2 ×10⁻⁶ cm/s
[3]
  SGF + Enz (compound remaining after 4 hours): ++ (++ indicates 40-79% compound remaining after 4 hours)
  SGF (compound remaining after 4 hours): ++ (++ indicates 40-79% compound remaining after 4 hours)
  SIF (compound remaining after 4 hours): +++ (+++ indicates 80-99% compound remaining after 4 hours)
[4]
  Rat Plasma (compound remaining after 4 hours): +++ (+++ indicates 80-99% compound remaining after 4 hours)
[5]
  Human Plasma (compound remaining after 4 hours): +++ (+++ indicates 80-99% compound remaining after 4 hours)

## CCC(C)CN1CC2N(C(=O)c3ccc(C(F)(F)F)cc3)CCC(=O)N2[C@@H](C)C1=O (stereo partly shown) [Compound 1a]
MDCK cells
  Potency (cell scattering): ++++ (++++ indicates maximum potency at or above 0.1 nM)
[1]
  solubility at 2 h: > 300 µM
[2]
  Papp at 5 h, 200 µM: > 2 ×10⁻⁶ cm/s
[3]
  SGF + Enz (compound remaining after 4 hours): ++++ (++++ indicates 100% compound remaining after 4 hours)
  SGF (compound remaining after 4 hours): ++++ (++++ indicates 100% compound remaining after 4 hours)
  SIF (compound remaining after 4 hours): ++++ (++++ indicates 100% compound remaining after 4 hours)
[4]
  Rat Plasma (compound remaining after 4 hours): ++ (++ indicates 40-79% compound remaining after 4 hours)
[5]
  Human Plasma (compound remaining after 4 hours): ++ (++ indicates 40-79% compound remaining after 4 hours)

## CCC(C)CN1CC2N(Cc3ccc(O)nc3)CCC(=O)N2[C@@H](C)C1=O (stereo partly shown) [Compound 7a]
MDCK cells
  Potency (cell scattering): ++ (++ indicates maximum potency at or above 10 nM)
[1]
  solubility at 2 h: > 300 µM
[2]
  Papp at 5 h, 200 µM: > 10 ×10⁻⁶ cm/s
[3]
  SGF + Enz (compound remaining after 4 hours): +++ (+++ indicates 80-99% compound remaining after 4 hours)
  SGF (compound remaining after 4 hours): ++++ (++++ indicates 100% compound remaining after 4 hours)
  SIF (compound remaining after 4 hours): ++ (++ indicates 40-79% compound remaining after 4 hours)

## C=CCCN1CC2N(C(=O)c3ccc(C(F)(F)F)cc3)CCC(=O)N2C(C)C1=O (stereo not shown) [Compound 22]
MDCK cells
  Potency (cell scattering): ++ (++ indicates maximum potency at or above 10 nM)
[1]
  solubility at 2 h: > 300 µM
[2]
  Papp at 5 h, 200 µM: < 2 ×10⁻⁶ cm/s
[3]
  SGF + Enz (compound remaining after 4 hours): +++ (+++ indicates 80-99% compound remaining after 4 hours)
  SGF (compound remaining after 4 hours): +++ (+++ indicates 80-99% compound remaining after 4 hours)
  SIF (compound remaining after 4 hours): +++ (+++ indicates 80-99% compound remaining after 4 hours)
[4]
  Rat Plasma (compound remaining after 4 hours): +++ (+++ indicates 80-99% compound remaining after 4 hours)
[5]
  Human Plasma (compound remaining after 4 hours): +++ (+++ indicates 80-99% compound remaining after 4 hours)

## CCC(C)CN1CC2N(Cc3ccc(OC(F)F)cc3)CCC(=O)N2[C@@H](C)C1=O (stereo partly shown) [Compound 6a]
MDCK cells
  Potency (cell scattering): +++ (+++ indicates maximum potency at or above 1 nM)
[1]
  solubility at 2 h: > 300 µM
[2]
  Papp at 5 h, 200 µM: < 2 ×10⁻⁶ cm/s
[3]
  SGF + Enz (compound remaining after 4 hours): + (+ indicates 20-39% compound remaining after 4 hours)
  SGF (compound remaining after 4 hours): +++ (+++ indicates 80-99% compound remaining after 4 hours)
  SIF (compound remaining after 4 hours): ++ (++ indicates 40-79% compound remaining after 4 hours)
[4]
  Rat Plasma (compound remaining after 4 hours): +++ (+++ indicates 80-99% compound remaining after 4 hours)
[5]
  Human Plasma (compound remaining after 4 hours): ++ (++ indicates 40-79% compound remaining after 4 hours)

## CCCCN1CC2N(C(=O)c3ccc(OC(F)F)cc3)CCC(=O)N2C(C)C1=O (stereo not shown) [Compound 17]
MDCK cells
  Potency (cell scattering): −
[1]
  solubility at 2 h: > 300 µM
[2]
  Papp at 5 h, 200 µM: > 2 ×10⁻⁶ cm/s
[3]
  SGF + Enz (compound remaining after 4 hours): +++ (+++ indicates 80-99% compound remaining after 4 hours)
  SGF (compound remaining after 4 hours): +++ (+++ indicates 80-99% compound remaining after 4 hours)
  SIF (compound remaining after 4 hours): +++ (+++ indicates 80-99% compound remaining after 4 hours)
[4]
  Rat Plasma (compound remaining after 4 hours): ++ (++ indicates 40-79% compound remaining after 4 hours)
[5]
  Human Plasma (compound remaining after 4 hours): +++ (+++ indicates 80-99% compound remaining after 4 hours)
